Legend:
[1] = target: T1, MtuATP-PRT (Mycobacterium tuberculosis, UniProt P9WMN1); assay: competitive kinetic isotope effects, scintillation counting; format: biochemical; details: reverse reaction; co-substrate PRATP; alternative to pyrophosphate
[2] = target: T1, MtuATP-PRT

T1 sequence (P9WMN1 whole entry): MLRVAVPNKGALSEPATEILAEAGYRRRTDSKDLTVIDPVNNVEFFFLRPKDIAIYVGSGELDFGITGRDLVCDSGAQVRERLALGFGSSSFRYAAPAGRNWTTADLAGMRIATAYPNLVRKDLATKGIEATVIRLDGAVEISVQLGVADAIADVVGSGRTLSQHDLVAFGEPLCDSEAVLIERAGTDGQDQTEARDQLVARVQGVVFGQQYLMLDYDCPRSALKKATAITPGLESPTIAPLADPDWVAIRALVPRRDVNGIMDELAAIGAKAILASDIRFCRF

Row | SMILES | competitive kinetic isotope effects, scintillation counting [1] | X-ray crystal structure (co-crystallisation) [2]
1 | O=C(O)CP(=O)(O)O [phosphonoacetic acid] | the ATP-PRT catalyzed reaction was studied using phosphonoacetic acid (PA) as an alternative | 
2 | Nc1ncnc2c1ncn2[C@@H]1O[C@H](COP(=O)(O)OP(=O)(O)OP(=O)(O)O)[C@@H](O)[C@H]1O [ATP] |  | a structure with ATP bound to MtuATP-PRT (PDB: 5U99) was obtained
